According to ChEMBL document CHEMBL1201862, “PubChem BioAssay data set” (2004):
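Step 1: Grow cells in 96-well plates. Step 2: Expose to compound for 48 hours at 5 concentrations. Step 3: Interpolate endpoints linearly; if unreached, use highest concentration. At the GI50, growth is halved.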 Activity calls are given as the source filed them. Cut-off read from the data, not from the text of the source: active = GI50 up to about 1.1 µM and inactive = higher.

What was measured:
Assay in all cases: inhibition of tumour cell growth, NCI panel, 48 h
[1] = system: TK-10
[2] = system: SR
[3] = system: MDA-MB-231
[4] = system: ACHN
[5] = system: SF-539
[6] = system: OVCAR-8
[7] = system: A549
[8] = system: UACC-257
[9] = system: IGROV-1
[10] = system: K562
[11] = system: UACC-62
[12] = system: CCRF-CEM
[13] = system: Hs-578T
[14] = system: 786-0
[15] = system: T47D
[16] = system: MDA-MB-435
[17] = system: SNB-75
[18] = system: A498

Measured: GI50

Cn1[nH]nn/c1=N\N=C\c1ccccc1
inactive: [1] > 10 µM | [2] > 10 µM | [3] > 10 µM | [4] > 10 µM | [5] > 10 µM | [6] > 10 µM | [7] > 10 µM | [8] > 10 µM | [9] > 10 µM | [10] > 10 µM | [11] > 10 µM | [12] > 10 µM | [13] > 10 µM | [14] > 10 µM | [15] > 10 µM | [16] > 10 µM | [17] > 10 µM

CSc1nc(Br)nc2c1ncn2C1CC(Oc2ccc(C)cc2)C(COc2ccc(C)cc2)O1 (centres undefined)
inactive: [1] > 100 µM | [3] 61.2 µM | [4] 33.7 µM | [5] > 100 µM | [6] > 100 µM | [7] > 100 µM | [8] > 100 µM | [9] > 100 µM | [18] > 100 µM | [11] > 100 µM | [12] > 100 µM | [13] 25.2 µM | [14] > 100 µM | [15] > 100 µM | [16] > 100 µM | [17] 23.3 µM

COc1cc(COC(=O)N2CC=CC2C(=O)O)c([N+](=O)[O-])cc1OC (centres undefined)
inactive: [1] > 100 µM | [2] > 100 µM | [4] > 100 µM | [5] > 100 µM | [6] > 100 µM | [7] > 100 µM | [8] > 100 µM | [9] > 100 µM | [18] > 100 µM | [10] > 100 µM | [11] > 100 µM | [12] > 100 µM | [13] > 100 µM | [14] > 100 µM | [15] > 100 µM | [16] > 100 µM | [17] > 100 µM

Nc1ncnc2nc(N3CCN(CCO)CC3)[nH]c12
inactive: [1] > 100 µM | [3] > 100 µM | [4] > 100 µM | [5] > 100 µM | [6] > 100 µM | [7] > 100 µM | [8] > 100 µM | [9] > 100 µM | [18] > 100 µM | [10] > 100 µM | [11] > 100 µM | [12] > 100 µM | [13] > 100 µM | [14] > 100 µM | [15] > 100 µM | [16] > 100 µM

CC(=O)OC12c3ccccc3C(c3ccccc31)C1C(=O)N(c3ccccc3O)C(=O)C12 (centres undefined)
inactive: [1] > 100 µM | [2] > 100 µM | [3] > 100 µM | [4] > 100 µM | [5] > 100 µM | [6] > 100 µM | [7] > 100 µM | [8] > 100 µM | [9] > 100 µM | [18] 90.2 µM | [10] > 100 µM | [11] > 10 µM | [12] 57.3 µM | [13] > 100 µM | [14] > 100 µM | [15] > 100 µM | [17] 46.3 µM

COC(=O)[C@@H]1CN(C(C)=O)C(=O)N1
inactive: [1] > 100 µM | [3] 5.06 µM | [4] > 100 µM | [5] > 100 µM | [6] > 100 µM | [7] > 100 µM | [8] > 100 µM | [9] > 100 µM | [18] > 100 µM | [10] > 100 µM | [11] > 100 µM | [12] > 100 µM | [13] > 100 µM | [14] > 100 µM | [15] 43.9 µM | [16] > 100 µM | [17] > 100 µM

O/N=C/C1c2ccccc2-c2ccccc21
inactive: [1] 18.9 µM | [2] 23.2 µM | [3] 14.6 µM | [4] 16.4 µM | [5] 16.2 µM | [6] 19.6 µM | [7] 19.2 µM | [8] 17.5 µM | [18] 17.5 µM | [10] 29.9 µM | [11] 15 µM | [12] 19.5 µM | [13] 18.7 µM | [14] 3.7 µM | [15] 19.3 µM | [16] 15.8 µM

CSc1nc(Nc2ccccc2Cl)c2c(N)nn(C)c2n1
inactive: [1] > 100 µM | [3] 28.3 µM | [4] 13.1 µM | [6] 16.9 µM | [7] > 100 µM | [8] > 100 µM | [9] > 100 µM | [18] > 100 µM | [10] > 100 µM | [11] > 100 µM | [12] > 100 µM | [13] 17 µM | [14] 82 µM | [15] 18.7 µM | [16] > 100 µM | [17] > 10 µM

C/C=C/COc1cc(NC(=S)OC(C)C)ccc1Cl.C/C=C\COc1cc(NC(=S)OC(C)C)ccc1Cl
inactive: [1] 14.9 µM | [2] 16.8 µM | [3] 23.8 µM | [4] 17.7 µM | [5] 19.8 µM | [6] 18.7 µM | [7] 15.6 µM | [8] 18.7 µM | [9] 19.6 µM | [18] 16.2 µM | [11] 15.8 µM | [12] 25.3 µM | [13] 17.7 µM | [14] 17.3 µM | [15] 16.9 µM | [16] 21.2 µM

CC(=O)NC(Cc1c[nH]cn1)C(=O)N1CCCC1C(N)=O (centres undefined)
inactive: [1] > 100 µM | [2] > 100 µM | [3] > 100 µM | [4] > 100 µM | [6] > 100 µM | [7] > 100 µM | [9] > 100 µM | [10] > 100 µM | [11] > 100 µM | [12] > 100 µM | [13] > 100 µM | [14] > 100 µM | [15] > 100 µM | [16] > 100 µM | [17] > 100 µM

N=C(N)c1ccc(/N=N\c2c(O)ccc3cc4c(/N=N\c5ccc(C(=N)N)cc5)c(O)ccc4cc23)cc1
inactive: [1] > 100 µM | [2] 26.6 µM | [3] 29 µM | [4] > 100 µM | [5] 94.8 µM | [6] 80.4 µM | [7] > 100 µM | [8] > 100 µM | [9] 51.5 µM | [10] 31.2 µM | [11] > 100 µM | [12] 37.2 µM | [13] > 100 µM | [14] 49 µM | [15] 96.8 µM | [16] > 100 µM | [17] > 100 µM

CCCCC(=C=C1CCCCC1O)C1CCCN1C(=O)OC(C)(C)C (centres undefined)
inactive: [1] 16.1 µM | [2] 23.6 µM | [3] 16.1 µM | [4] 15.8 µM | [5] 18.7 µM | [6] 18.7 µM | [7] 14.9 µM | [8] 15.6 µM | [9] 16.7 µM | [10] 17.5 µM | [11] 11.2 µM | [12] 17.6 µM | [13] 19.3 µM | [14] 16.1 µM | [15] 13.2 µM | [16] 16.9 µM | [17] 13.8 µM

OCC(O)C(O)C(O)C(O)c1nc2cc(Cl)ccc2[nH]1 (centres undefined)
inactive: [1] > 100 µM | [3] > 100 µM | [4] > 100 µM | [5] > 100 µM | [6] > 100 µM | [7] > 100 µM | [8] > 100 µM | [9] > 100 µM | [18] > 100 µM | [10] > 100 µM | [11] > 100 µM | [12] > 100 µM | [13] > 100 µM | [14] > 100 µM | [15] > 100 µM | [16] > 100 µM | [17] > 100 µM

Cc1cc2oc(=O)c(Cl)c(Cl)c2c(C)c1Cl
inactive: [1] 14.8 µM | [3] 11 µM | [4] 11.2 µM | [5] 9.35 µM | [6] 3.28 µM | [7] 15.7 µM | [8] 15.1 µM | [9] 4.3 µM | [18] 19.9 µM | [10] 1.95 µM | [11] 6.71 µM | [12] 2.83 µM | [13] 2.59 µM | [14] 3.15 µM | [15] 5.46 µM | [16] 4.25 µM | [17] 12.4 µM

COc1ccc(N2C(=O)/C(=C\c3cc(OC)c(OC)c(OC)c3)S(=O)(=O)C2c2ccccc2)cc1 (centres undefined)
inactive: [1] > 100 µM | [2] 11 µM | [3] 34.8 µM | [4] 48.3 µM | [5] 37.9 µM | [6] 25.2 µM | [7] 26.2 µM | [8] 52.7 µM | [18] > 100 µM | [10] 12.7 µM | [11] 21.6 µM | [12] 39.2 µM | [13] 58.3 µM | [14] 43.5 µM | [15] 24.7 µM | [16] 21.8 µM

NC(=O)c1ccc(NS(=O)(=O)c2ccc(N)cc2)nc1
inactive: [1] > 100 µM | [3] > 100 µM | [4] > 100 µM | [6] > 100 µM | [8] > 100 µM | [9] > 100 µM | [18] > 100 µM | [10] > 100 µM | [11] > 100 µM | [12] > 100 µM | [13] > 100 µM | [14] > 100 µM | [15] > 100 µM | [16] > 100 µM | [17] > 100 µM

CC(C)CNc1nc(N)nc(O)c1NC=O
inactive: [1] > 100 µM | [3] > 100 µM | [4] > 100 µM | [5] > 100 µM | [6] > 100 µM | [7] > 100 µM | [8] > 100 µM | [9] > 100 µM | [18] > 100 µM | [10] > 100 µM | [11] > 100 µM | [12] > 100 µM | [13] > 100 µM | [14] > 100 µM | [15] > 100 µM | [16] > 100 µM | [17] > 100 µM
